From US6610270B1, “In vivo determination of metabolic function for use in therapy management” (Xanthus Life Sciences, Inc., priority 1998, dated 2003)

Experiments:
[1] = target: T1, cystathionine synthase (CS) (Oryctolagus cuniculus, UniProt Q9N0V7); conditions: male, New Zealand, rabbit, in vivo, iv, 2 mg/kg
T1 sequence (Q9N0V7 1-551): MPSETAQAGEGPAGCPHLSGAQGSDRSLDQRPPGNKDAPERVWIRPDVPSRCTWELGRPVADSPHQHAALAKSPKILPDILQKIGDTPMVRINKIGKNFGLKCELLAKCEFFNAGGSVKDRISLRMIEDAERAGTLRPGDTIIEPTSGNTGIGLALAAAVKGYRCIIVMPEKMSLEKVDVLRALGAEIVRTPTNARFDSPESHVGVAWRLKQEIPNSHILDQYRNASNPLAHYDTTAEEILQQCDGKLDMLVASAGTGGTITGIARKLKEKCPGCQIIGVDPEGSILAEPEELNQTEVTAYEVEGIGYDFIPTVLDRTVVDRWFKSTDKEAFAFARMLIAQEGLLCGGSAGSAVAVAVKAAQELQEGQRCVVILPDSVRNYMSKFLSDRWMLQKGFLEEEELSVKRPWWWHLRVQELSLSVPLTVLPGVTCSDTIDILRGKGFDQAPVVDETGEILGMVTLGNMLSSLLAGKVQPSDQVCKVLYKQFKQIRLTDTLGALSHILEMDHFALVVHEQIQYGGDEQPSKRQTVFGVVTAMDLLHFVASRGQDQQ

[2] = target: T1, cystathionine synthase (CS); assay: CS gateway enzyme breath test with homocysteine metaprobe, basal and after methionine load; conditions: n = 4
[3] = target: T2, oxoprolinase (Homo sapiens, UniProt O14841); assay: 13C-OTC breath test, metabolic rate index with and without acetaminophen; assay type: in vivo; conditions: for Metabolic Rate Index, ACE+: 2 gm acetaminophen one hour prior to OTC; for Metabolic Rate Index, BASAL: oral 13C-OTC 1.5 mg/kg alone
T2 construct: Seven healthy volunteers (ages 22-39) each participated in two studies; from tissue; host or cells: whole body of human volunteers (oral dose, breath test)
T2 sequence (O14841 1-1288): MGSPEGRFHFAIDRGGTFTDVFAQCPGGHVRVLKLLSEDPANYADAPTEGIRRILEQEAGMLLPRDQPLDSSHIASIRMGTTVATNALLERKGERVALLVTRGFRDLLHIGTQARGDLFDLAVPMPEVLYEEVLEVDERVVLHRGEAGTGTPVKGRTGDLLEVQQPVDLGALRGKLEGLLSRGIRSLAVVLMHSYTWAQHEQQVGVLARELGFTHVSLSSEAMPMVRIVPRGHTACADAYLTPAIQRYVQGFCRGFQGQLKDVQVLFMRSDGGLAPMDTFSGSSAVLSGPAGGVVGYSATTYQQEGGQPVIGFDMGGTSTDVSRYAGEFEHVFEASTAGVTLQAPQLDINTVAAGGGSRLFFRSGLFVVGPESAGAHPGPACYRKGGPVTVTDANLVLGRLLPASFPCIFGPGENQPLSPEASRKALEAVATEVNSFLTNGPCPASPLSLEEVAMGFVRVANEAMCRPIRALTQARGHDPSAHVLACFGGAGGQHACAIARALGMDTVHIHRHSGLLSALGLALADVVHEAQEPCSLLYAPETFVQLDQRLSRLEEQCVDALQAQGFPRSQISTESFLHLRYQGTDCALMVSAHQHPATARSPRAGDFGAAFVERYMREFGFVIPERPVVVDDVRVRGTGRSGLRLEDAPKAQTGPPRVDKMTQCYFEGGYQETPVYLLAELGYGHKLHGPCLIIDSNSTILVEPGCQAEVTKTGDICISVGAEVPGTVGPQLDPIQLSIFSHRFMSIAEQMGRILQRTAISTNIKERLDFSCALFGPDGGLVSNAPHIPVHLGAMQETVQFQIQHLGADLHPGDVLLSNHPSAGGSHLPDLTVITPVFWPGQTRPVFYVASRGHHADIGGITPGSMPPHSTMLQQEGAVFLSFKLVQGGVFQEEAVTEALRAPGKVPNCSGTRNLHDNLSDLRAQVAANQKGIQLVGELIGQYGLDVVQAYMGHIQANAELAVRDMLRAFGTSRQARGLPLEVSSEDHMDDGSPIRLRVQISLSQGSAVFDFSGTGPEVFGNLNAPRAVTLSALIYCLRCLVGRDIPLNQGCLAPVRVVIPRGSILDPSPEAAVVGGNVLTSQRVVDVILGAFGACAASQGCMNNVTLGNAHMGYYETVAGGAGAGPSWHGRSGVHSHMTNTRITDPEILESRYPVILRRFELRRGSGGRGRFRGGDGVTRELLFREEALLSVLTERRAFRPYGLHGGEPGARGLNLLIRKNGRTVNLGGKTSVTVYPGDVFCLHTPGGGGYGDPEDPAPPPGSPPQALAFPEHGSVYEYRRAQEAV
Experimental: Seven healthy volunteers (ages 22-39) each participated in two studies. After three days on a weight maintaining diet, each participant was given a drink containing ^13C-labelled OTC (1.5 mg/kg), following which blood and expired breath were sampled frequently. In the first test, each participant received the OTC alone. In the second study at least one week later, each participant ingested 2 gm acetaminophen one hour prior to the OTC drink. Expired breath samples were analyzed for the ^13C enrichment (APE) of CO2, and expressed as isotopic enrichment in atom per cent excess (APE×1000) versus time, in the usual manner and in accordance with the general protocol described in Example I. A second panel of probands (ages 53-73) were tested in a similar manner.
From the pattern of label enrichment, at least two types of kinetic processes are apparent, one is absorption, since the metaprobe was dispensed orally, and the other disposition.
Deconvolution of this model by equation transformation and coefficient matching (Wagner, 1993) afforded separate kinetic measurements for the post absorptive metabolism of OTC in the metabolic compartment, and this was expressed as a fractional catabolic rate (Lassen and Perl, 1979). Lastly, the per cent of metaprobe dose recovered in breath was computed from the cumulative integral of the ^13CO2 enrichment versus time plot multiplied by the CO2 production rate for each proband, which in these experiments were measured by indirect calorimetry (but can also be estimated from formulas that have been proven to correlate an individual's height, weight, age and gender with CO2 production). The metabolic index for OTC utilization by oxoprolinase was then computed by the simple expedient of multiplying the dose of metaprobe by the per cent recovery and then by the fractional catabolic rate.
The data from the validating trial in this Example III all corroborate the biochemical hypothesis concerning the OTC metaprobe's mode of action as an indicator of oxoprolinase activity and, therefore, its utility as a surrogate indicator for glutathione production capacity. The results, which are expressed in terms of nanomoles of OTC metabolized per kilogram body weight per minute for the basal condition (BASAL), post acetaminophen (ACE+), and the stimulatory difference between ACE+ and BASAL (STIM) are shown in Table 5.

[4] = target: T3, oxoprolinase (Rattus norvegicus, UniProt P97608); conditions: enzymatic assay; cited from earlier work
T3 sequence (P97608 1-1288): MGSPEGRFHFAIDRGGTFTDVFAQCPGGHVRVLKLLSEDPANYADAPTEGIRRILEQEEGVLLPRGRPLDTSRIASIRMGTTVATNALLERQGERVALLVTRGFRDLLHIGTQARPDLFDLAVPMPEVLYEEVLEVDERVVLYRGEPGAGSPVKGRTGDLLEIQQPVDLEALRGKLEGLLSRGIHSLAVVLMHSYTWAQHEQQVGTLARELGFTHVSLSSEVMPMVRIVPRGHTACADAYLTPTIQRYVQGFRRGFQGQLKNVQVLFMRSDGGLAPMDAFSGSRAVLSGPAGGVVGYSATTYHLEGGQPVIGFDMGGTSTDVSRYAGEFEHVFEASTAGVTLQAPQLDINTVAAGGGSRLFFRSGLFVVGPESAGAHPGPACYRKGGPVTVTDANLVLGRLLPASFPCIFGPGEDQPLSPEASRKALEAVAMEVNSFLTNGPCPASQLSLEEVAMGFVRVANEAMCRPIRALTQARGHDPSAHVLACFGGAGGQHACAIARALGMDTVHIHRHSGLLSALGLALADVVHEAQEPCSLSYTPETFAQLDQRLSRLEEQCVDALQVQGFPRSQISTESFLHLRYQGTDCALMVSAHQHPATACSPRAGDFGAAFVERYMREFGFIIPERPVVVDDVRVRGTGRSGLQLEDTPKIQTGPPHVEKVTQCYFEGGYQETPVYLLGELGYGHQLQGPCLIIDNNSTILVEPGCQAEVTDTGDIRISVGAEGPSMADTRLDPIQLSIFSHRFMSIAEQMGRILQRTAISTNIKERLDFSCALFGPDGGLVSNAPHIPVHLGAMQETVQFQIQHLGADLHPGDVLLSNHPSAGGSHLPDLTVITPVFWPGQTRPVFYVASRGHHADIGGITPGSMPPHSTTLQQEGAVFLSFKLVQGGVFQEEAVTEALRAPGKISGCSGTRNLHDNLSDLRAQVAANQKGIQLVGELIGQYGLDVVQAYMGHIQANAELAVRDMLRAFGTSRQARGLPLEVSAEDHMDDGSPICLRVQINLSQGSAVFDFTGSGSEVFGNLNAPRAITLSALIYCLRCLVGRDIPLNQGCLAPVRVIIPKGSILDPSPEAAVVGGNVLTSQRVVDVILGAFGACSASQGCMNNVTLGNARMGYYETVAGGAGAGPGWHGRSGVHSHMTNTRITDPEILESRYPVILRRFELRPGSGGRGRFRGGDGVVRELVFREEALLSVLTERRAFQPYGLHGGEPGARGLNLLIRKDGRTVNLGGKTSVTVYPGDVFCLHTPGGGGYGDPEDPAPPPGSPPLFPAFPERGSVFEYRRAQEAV

Structure (SMILES) | Metabolic Response Index (MRI), BASAL [1] | LI, load tolerance index (BASAL minus MET+) [2] | Metabolic Rate Index, ACE+ ([3]; ALL (22-73 yrs., n = 12)) [nmol/kg/min] | Metabolic Rate Index, ACE+ ([3]; OLD (53-73 yrs., n = 5)) [nmol/kg/min] | Metabolic Rate Index, ACE+ ([3]; YOUNG (22-39 yrs., n = 7)) [nmol/kg/min] | Metabolic Rate Index, STIM (difference between ACE+ and BASAL) ([3]; ALL (22-73 yrs., n = 12)) [nmol/kg/min] | Metabolic Rate Index, STIM (difference between ACE+ and BASAL) ([3]; OLD (53-73 yrs., n = 5)) [nmol/kg/min] | Metabolic Rate Index, STIM (difference between ACE+ and BASAL) ([3]; YOUNG (22-39 yrs., n = 7)) [nmol/kg/min] | Metabolic Rate Index, BASAL ([3]; ALL (22-73 yrs., n = 12)) [nmol/kg/min] | Metabolic Rate Index, BASAL ([3]; OLD (53-73 yrs., n = 5)) [nmol/kg/min] | Metabolic Rate Index, BASAL ([3]; YOUNG (22-39 yrs., n = 7)) [nmol/kg/min] | action on oxoproline hydrolysis by oxoprolinase [4]
CCOC(=O)[C@@H]1CCSC(=O)N1 [Homocysteine Metaprobe, L-2-oxo-tetrahydro-1,3-thiazine-4-carboxylic acid ethyl ester] | 85 +/− 14 (n = 4) MicroMol/kg/hr. | 57 +/− 24 (n = 4) MicroMol/kg/hr. | – | – | – | – | – | – | – | – | – | –
O=C(O)[C@@H]1CS[13C](=O)N1 [OTC, L-2-oxo[^13C]thiazolidine-4-carboxylic acid] | – | – | 515 ± 227 | 452 ± 161 | 547 ± 269 | 208 ± 82 | 117 ± 40 | 261 ± 115 | 307 ± 108 | 335 ± 110 | 286 ± 111 | competitive inhibitor of oxoproline hydrolysis
